Measured values published in patent publication US20230382924A1, “MODULATORS OF CYSTIC FIBROSIS TRANSMEMBRANE CONDUCTANCE REGULATOR” (VERTEX PHARMACEUTICALS INCORPORATED, priority 2020, published 2023).
Where two headings read alike, the source gives them in different places.

Target: CFTR (Homo sapiens, UniProt P13569)
Experiment: Membrane Potential Dye, Enteroid Assay A
Type: cell-based
Settings: for EC50: read-out: Ent. A EC50
Description: Base medium (ADF+++) consisted of Advanced DMEM/Ham's F12, 2 mM Glutamax, 10 mM HEPES, […] penicillin/streptomycin.
Bath 1 Buffer consisted of 1 mM MgCl2, 160 mM NaCl, 4.5 mM KCl, 10 mM HEPES, 10 mM Glucose, 2 mM CaCl2).
Chloride Free Buffer consisted of 1 mM Magnesium Gluconate, 2 mM Calcium Gluconate, 4.5 mM Potassium Gluconate, 160 mM Sodium Gluconate, 10 mM HEPES, 10 mM Glucose.
Bath 1 Dye Solution consisted of Bath 1 Buffer, 0.04% Pluronic F127, 20 μM Methyl Oxonol, 30 μM CaCCinh-A01, 30 μM Chicago Sky Blue.
Chloride Free Dye Solution consisted of Chloride Free Buffer, 0.04% Pluronic F127, 20 μM Methyl Oxonol, 30 μM CaCCinh-A01, 30 μM Chicago Sky Blue.
3. Enteroid Cell Harvesting and Seeding
Cells were recovered in cell recovery solution, collected by centrifugation at 650 rpm for 5 min at 4° C., resuspended in TryPLE and incubated for 5 min at 37° C. Cells were then collected by centrifugation at 650 rpm for 5 min at 4° C. and resuspended in IEMM containing 10 μM ROCK inhibitor (RI).
4. Membrane Potential Dye, Enteroid Assay A
Briefly, cells were washed 5 times in Bath 1 Buffer. Bath 1 Dye Solution was added, and the cells were incubated for 25 min at room temperature. Following dye incubation, cells were washed 3 times in Chloride Free Dye Solution. Chloride transport was initiated by addition of Chloride Free Dye Stimulation Solution and the fluorescence signal was read for 15 min. […] Chloride transport was then expressed as a percentage of the chloride transport following treatment with 3 μM N-[(6-amino-2-pyridyl)sulfonyl]-6-(3-fluoro-5-isobutoxy-phenyl)-2-[(4S)-2,2,4-trimethylpyrrolidin-1-yl]pyridine-3-carboxamide, 3 μM (R)-1-(2,2-difluorobenzo[d][1,3]dioxol-5-yl)-N-(1-(2,3-dihydroxypropyl)-6-fluoro-2-(1-hydroxy-2-methylpropan-2-yl)-1H-indol-5-yl)cyclopropanecarboxamide and 300 nM acute N-[2,4-bis(1,1-dimethylethyl)-5-hydroxyphenyl]-1,4-dihydro-4-oxoquinoline-3-carboxamide triple combination control (% Activity).

Sequence of CFTR (P13569 with tags, fused parts or gaps DEL508-508): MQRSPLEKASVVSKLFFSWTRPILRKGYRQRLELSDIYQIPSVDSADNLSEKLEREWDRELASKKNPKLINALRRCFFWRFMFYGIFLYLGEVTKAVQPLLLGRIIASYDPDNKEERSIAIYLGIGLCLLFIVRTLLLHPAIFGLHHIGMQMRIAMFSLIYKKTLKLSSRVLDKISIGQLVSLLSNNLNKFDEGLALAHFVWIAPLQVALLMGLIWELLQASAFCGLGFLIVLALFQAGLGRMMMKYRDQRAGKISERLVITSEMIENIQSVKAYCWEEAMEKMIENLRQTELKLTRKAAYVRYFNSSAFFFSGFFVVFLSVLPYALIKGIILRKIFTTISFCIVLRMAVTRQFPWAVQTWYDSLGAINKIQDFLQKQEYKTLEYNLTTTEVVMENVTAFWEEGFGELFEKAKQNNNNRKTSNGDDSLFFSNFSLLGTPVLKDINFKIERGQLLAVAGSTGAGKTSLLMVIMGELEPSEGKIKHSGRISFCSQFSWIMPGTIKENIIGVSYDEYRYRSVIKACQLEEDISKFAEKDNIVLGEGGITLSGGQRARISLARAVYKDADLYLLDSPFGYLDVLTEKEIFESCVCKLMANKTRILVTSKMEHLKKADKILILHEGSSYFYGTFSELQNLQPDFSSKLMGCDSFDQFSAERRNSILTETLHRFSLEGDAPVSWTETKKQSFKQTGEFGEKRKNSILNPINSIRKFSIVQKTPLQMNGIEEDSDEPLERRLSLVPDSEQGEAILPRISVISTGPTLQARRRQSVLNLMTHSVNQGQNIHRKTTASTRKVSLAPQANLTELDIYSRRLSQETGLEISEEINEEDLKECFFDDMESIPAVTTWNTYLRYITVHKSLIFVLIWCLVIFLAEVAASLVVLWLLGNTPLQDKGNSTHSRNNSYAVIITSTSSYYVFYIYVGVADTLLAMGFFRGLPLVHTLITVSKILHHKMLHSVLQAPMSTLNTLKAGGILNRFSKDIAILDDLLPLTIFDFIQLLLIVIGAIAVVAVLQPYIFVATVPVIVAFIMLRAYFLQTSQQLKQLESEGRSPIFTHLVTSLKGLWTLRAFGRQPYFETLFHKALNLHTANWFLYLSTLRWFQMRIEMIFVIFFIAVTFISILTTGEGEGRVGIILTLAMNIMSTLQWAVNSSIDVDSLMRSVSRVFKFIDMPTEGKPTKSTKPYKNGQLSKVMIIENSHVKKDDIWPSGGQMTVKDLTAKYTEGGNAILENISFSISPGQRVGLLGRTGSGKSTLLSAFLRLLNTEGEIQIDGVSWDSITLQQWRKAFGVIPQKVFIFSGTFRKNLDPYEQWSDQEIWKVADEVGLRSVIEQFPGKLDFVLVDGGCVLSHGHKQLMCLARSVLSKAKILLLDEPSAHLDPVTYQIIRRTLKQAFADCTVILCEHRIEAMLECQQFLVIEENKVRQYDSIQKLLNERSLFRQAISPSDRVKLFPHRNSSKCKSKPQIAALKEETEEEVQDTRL

| Ent. A Max Activity (Table 9) | EC50 (Table 9) | SMILES | further results |
| --- | --- | --- | --- |
| – | – | Cc1cccc(C)c1-c1cc2nc(n1)NS(=O)(=O)c1cccc(c1)C(=O)NCC(c1ccc(Br)cc1)O2 (racemic) [Compound 18, 10-(4-Bromophenyl)-6-(2,6-dimethylphenyl)-2,2-dioxo-9-oxa-2λ^6-thia-3,5,12,19-tetrazatricyclo[12.3.1.14,8]nonadeca-1(18),4(19),5,7,14,16-hexaen-13-one] | Ent. A Max Activity (Table 8): +++ (+++ is >60%); EC50 (Table 8): < 1000 nM |
| – | – | Cc1cccc(C)c1-c1cc2nc(n1)NS(=O)(=O)c1cccc(c1)C(=O)NC[C@@H](c1ccc(C(C)(C)C)cn1)O2 (single isomer, unassigned) [Compound 8, 10-(5-tert-butyl-2-pyridyl)-6-(2,6-dimethylphenyl)-2,2-dioxo-9-oxa-2λ^6-thia-3,5,12,19-tetrazatricyclo[12.3.1.14,8]nonadeca-1(18),4(19),5,7,14,16-hexaen-13-one] | Ent. A Max Activity (Table 8): + (+ is <30%) |
| – | – | Cc1cccc(C)c1-c1cc2nc(n1)NS(=O)(=O)c1cccc(c1)C(=O)NCC(c1ccc(C3(C(F)(F)F)CC3)cc1)O2 (single isomer, unassigned) [Compound 10, 6-(2,6-dimethylphenyl)-2,2-dioxo-10-[4-[1-(trifluoromethyl)cyclopropyl]phenyl]-9-oxa-2λ^6-thia-3,5,12,19-tetrazatricyclo[12.3.1.14,8]nonadeca-1(18),4(19),5,7,14,16-hexaen-13-one] | EC50 (Table 8): < 1000 nM |
| + (+ is <30%) | < 1000 nM | Cc1cccc(C)c1-c1cc2nc(n1)NS(=O)(=O)c1cccc(c1)C(=O)NCC(c1ccc(C3CCC3)cc1)O2 (single isomer, unassigned) [Compound 13, 10-(4-Cyclobutylphenyl)-6-(2,6-dimethylphenyl)-2,2-dioxo-9-oxa-2λ^6-thia-3,5,12,19-tetrazatricyclo[12.3.1.14,8]nonadeca-1(18),4(19),5,7,14,16-hexaen-13-one] | – |
| +++ (+++ is >60%) | < 1000 nM | Cc1cccc(C)c1-c1cc2nc(n1)NS(=O)(=O)c1cccc(c1)C(=O)NCC(c1ccc(C3CCC3)cc1)O2 (single isomer, unassigned) [Compound 14, 10-(4-cyclobutylphenyl)-6-(2,6-dimethylphenyl)-2,2-dioxo-9-oxa-2λ^6-thia-3,5,12,19-tetrazatricyclo[12.3.1.14,8]nonadeca-1(18),4(19),5,7,14,16-hexaen-13-one] | – |
| – | – | Cc1cccc(C)c1-c1cc2nc(n1)NS(=O)(=O)c1cccc(c1)C(=O)NCC(c1ccc(Br)cc1)O2 (single isomer, unassigned) [Compound 19, 10-(4-bromophenyl)-6-(2,6-dimethylphenyl)-2,2-dioxo-9-oxa-2λ^6-thia-3,5,12,19-tetrazatricyclo[12.3.1.14,8]nonadeca-1(18),4(19),5,7,14,16-hexaen-13-one] | Ent. A Max Activity (Table 8): + (+ is <30%) |
| – | – | Cc1cccc(C)c1-c1cc2nc(n1)NS(=O)(=O)c1cccc(c1)C(=O)NCC(c1ccc(Br)cc1)O2 (single isomer, unassigned) [Compound 20, 10-(4-bromophenyl)-6-(2,6-dimethylphenyl)-2,2-dioxo-9-oxa-2λ^6-thia-3,5,12,19-tetrazatricyclo[12.3.1.14,8]nonadeca-1(18),4(19),5,7,14,16-hexaen-13-one] | EC50 (Table 8): < 1000 nM |
| – | – | Cc1cccc(C)c1-c1cc2nc(n1)NS(=O)(=O)c1cccc(c1)C(=O)N[C@@H](CCC(C)(C)C)CO2 (single isomer, unassigned) [Compound 48] | Ent. A Max Activity (Table 8): + (+ is <30%); EC50 (Table 8): < 1000 nM |
| + (+ is <30%) | – | Cc1cccc(C)c1-c1cc2nc(n1)NS(=O)(=O)[C@H]1CC[C@H]1C(=O)N[C@H](CC(C)C)CO2 (single isomer, unassigned) [Compound 71] | – |
| + (+ is <30%) | – | Cc1cccc(C)c1-c1cc2nc(n1)NS(=O)(=O)[C@H]1CC[C@H]1C(=O)N[C@H](CC(C)C)CO2 (single isomer, unassigned) [Compound 72] | – |
| – | – | Cc1cccc(C)c1-c1cc2nc(n1)NS(=O)(=O)c1cccc(c1)C(=O)NC1CC(CN(CCC(C)(C)C)C1)O2 (single isomer, unassigned) [Compound 79, 5-(3,3-dimethylbutyl)-19-(2,6-dimethylphenyl)-2-oxa-15λ^6-thia-5,8,16,18,21-pentaazatetracyclo[15.3.1.13,7.110,14]tricosa-1(20),10,12,14(22),17(21),18-hexaene-9,15,15-trione] | Ent. A Max Activity (Enteroid Assay A): ++ (++ is 30-60%); EC50 (Enteroid Assay A): < 1000 nM |
| – | – | Cc1cccc(C)c1-c1cc2nc(n1)NS(=O)(=O)c1cccc(c1)C(=O)NC1CC(CN(CCC(C)(C)C)C1)O2 (single isomer, unassigned) [Compound 80, 5-(3,3-Dimethylbutyl)-19-(2,6-dimethylphenyl)-2-oxa-15λ^6-thia-5,8,16,18,21-pentaazatetracyclo[15.3.1.13,7.110,14]tricosa-1(20),10,12,14(22),17(21),18-hexaene-9,15,15-trione] | Ent. A Max Activity (Enteroid Assay A): ++ (++ is 30-60%); EC50 (Enteroid Assay A): 1000 to 3000 nM |
| +++ (+++ is >60%) | 1000 to 3000 nM | Cc1cccc(C)c1-c1cc2nc(n1)NS(=O)(=O)c1cccc(c1)C(=O)N[C@@H]1CCN(C(=O)OC(C)(C)C)C[C@H]1O2 (single isomer, unassigned) [Compound 87, tert-butyl 20-(2,6-dimethylphenyl)-10,16,16-trioxo-2-oxa-16λ^6-thia-5,9,17,19,22-pentaazatetracyclo[16.3.1.111,15.03,8]tricosa-1(21),11(23),12,14,18(22),19-hexaene-5-carboxylate] | – |
| + (+ is <30%) | – | Cc1cccc(C)c1-c1cc2nc(n1)NS(=O)(=O)c1cccc(c1)C(=O)N[C@@H]1CCN(C(=O)OC(C)(C)C)C[C@H]1O2 (single isomer, unassigned) [Compound 88, tert-Butyl 20-(2,6-dimethylphenyl)-10,16,16-trioxo-2-oxa-16λ^6-thia-5,9,17,19,22-pentaazatetracyclo[16.3.1.111,15.03,8]tricosa-1(21),11(23),12,14,18(22),19-hexaene-5-carboxylate] | – |
| + (+ is <30%) | – | Cc1cccc(C)c1-c1cc2nc(n1)NS(=O)(=O)c1cccc(c1)C(=O)N[C@@H]1CCN(CCC(C)(C)C)C[C@H]1O2 (single isomer, unassigned) [Compound 89, 5-(3,3-Dimethylbutyl)-20-(2,6-dimethylphenyl)-2-oxa-16λ^6-thia-5,9,17,19,22-pentaazatetracyclo[16.3.1.111,15.03,8]tricosa-1(21),11(23),12,14,18(22),19-hexaene-10,16,16-trione] | – |
| +++ (+++ is >60%) | 1000 to 3000 nM | Cc1cccc(C)c1-c1cc2nc(n1)NS(=O)(=O)c1cccc(c1)C(=O)N[C@H]1CCN(CCC(C)(C)C)C[C@H]1O2 (single isomer, unassigned) [Compound 90, 5-(3,3-dimethylbutyl)-20-(2,6-dimethylphenyl)-2-oxa-16λ^6-thia-5,9,17,19,22-pentaazatetracyclo[16.3.1.111,15.03,8]tricosa-1(21),11(23),12,14,18(22),19-hexaene-10,16,16-trione] | – |
| +++ (+++ is >60%) | < 1000 nM | Cc1cccc(C)c1-c1cc2nc(n1)NS(=O)(=O)c1cccc(c1)C(=O)N[C@@H]1CCN(Cc3ccc(C(C)(C)C)cc3)C[C@@H]1O2 (single isomer, unassigned) [Compound 91, 5-[(4-tert-butylphenyl)methyl]-20-(2,6-dimethylphenyl)-2-oxa-16λ^6-thia-5,9,17,19,22-pentaazatetracyclo[16.3.1.111,15.03,8]tricosa-1(21),11(23),12,14,18(22),19-hexaene-10,16,16-trione] | – |
| ++ (++ is 30-60%) | 3000 to 30000 nM | Cc1cccc(C)c1-c1cc2nc(n1)NS(=O)(=O)c1cccc(c1)C(=O)N[C@@H](CC(F)(F)F)CO2 (single isomer, unassigned) [Compound 93, 6-(2,6-dimethylphenyl)-11-(2,2,2-trifluoroethyl)-9-oxa-2λ^6-thia-3,5,12,19-tetraazatricyclo[12.3.1.14,8]nonadeca-1(17),4(19),5,7,14(18),15-hexaene-2,2,13-trione] | – |

| SMILES | Ent. A Max Activity (Table 9) | EC50 (Table 9) | further results |
| --- | --- | --- | --- |
| Cc1cccc(C)c1-c1cc2nc(n1)NS(=O)(=O)c1cccc(c1)C(=O)NCC(c1ccc([Si](C)(C)C)cc1)O2 (single isomer, unassigned) [Compound 16, 6-(2,6-Dimethylphenyl)-2,2-dioxo-10-(4-trimethylsilylphenyl)-9-oxa-2λ^6-thia-3,5,12,19-tetrazatricyclo[12.3.1.14,8]nonadeca-1(18),4(19),5,7,14,16-hexaen-13-one] | – | < 1000 nM | – |
